# Measured values published in patent publication US20080318246A1, “Deeply quenched enzyme sensors” (The Albert Einstein College of Medicine of Yeshiva …, priority 2007, published 2008).
# Square brackets hold non-standard residues; d marks the D form. Peptide text beside a SMILES is read from it. * marks the point of attachment. Acetyl(1-pyrenyl) = O=C(Cc1ccc2ccc3cccc4ccc1c2c34)*; Carminic acid = quencher bound covalently; Ala(Pyr) = not defined here; Dap = NC[C@H](N)C(=O)O
# Tests used:
# peptide P2 = assay: Apparent KD of lead quencher dyes with peptide P2 (quenching of pyrene fluorescence); assay type: binding; settings: with 5 μM pyrene-labeled peptide P2, 100 mM Tris HCl pH 7.5, inner filter corrected
# Method: KD values were acquired for the set of the ten lead quenchers with peptide P2, in order to obtain a target range for the quencher:peptide ratios to be employed in the subsequent assays (vide infra). These apparent KD values were determined using the quenching of pyrene fluorescence as a barometer of peptide/quencher complex stability. […] An inner filter effect (at high dye concentrations) was corrected as previously described (Levine (1977) Clin. Chem. 23:2292-301).
# peptide P5 = assay: Apparent KD of lead quencher/peptide pair, peptide P5; assay type: binding
# Method: (§1) Varying concentrations of 10 dyes (FIG. 2 Panel B), ranging from 0.5-500 μM, were added to 5 μM pyrene-labeled P2 peptide in 100 mM Tris HCl pH 7.5 buffer (96 well plates). […] After correcting for the inner filter effect, the percentage of quench was plotted against the concentration of the dye. A nonlinear regression analysis fit of the data to the rectangular hyperbola model using the Sigma Plot version 8.02 software was used to obtain apparent KD values.
# [1] = target: phosphorylated P5 peptide; assay: Apparent KD of quencher with phosphorylated P5 peptide; assay type: binding
# Method: as §1
# PKA [2] = target: T1, PKA (Mus musculus, UniProt P05132); assay: Control: phosphorylation-induced fluorescence change of pyrene peptides without quenching dye, with 14-3-3τ; assay type: biochemical, murine; set-up: made in house; settings: absence of quenching dye, ATP, 5 μM peptide
# PKA [3] = target: T1, PKA; assay: Fluorescence increase of covalently quenched peptides P13, P14 upon phosphorylation by PKA; assay type: biochemical; settings: for change in fluorescence upon phosphorylation by PKA: in the absence of 14-3-3
# Method: Pyrene-substituted peptides P13 (FIG. 15 Panel A, SEQ ID NO:21) and P14 (FIG. 15 Panel B, SEQ ID NO:22) were synthesized. […] The assay was performed with a total volume of 200 μL and was initiated with the addition of PKA enzyme. […]
# peptide P9 = assay: Apparent KD of lead quencher/peptide pair, peptide P9; settings: read-out: Apparent KD; with peptide P9
# Method: as §1
Compound,Kd (peptide P2) [µM],% Fluorescence Enhancement (PKA [2]) [%],also measured
"Cc1cc(-c2ccc(/N=N/c3ccc4c(S(=O)(=O)O)cc(S(=O)(=O)O)c(N)c4c3O)c(C)c2)ccc1/N=N/c1ccc2c(S(=O)(=O)O)cc(S(=O)(=O)O)c(N)c2c1O [D3, Evans Blue]",2.8 ± 0.8,,
"Nc1c(S(=O)(=O)O)cc(Nc2ccc(Nc3nc(Cl)nc(Nc4cccc(S(=O)(=O)O)c4)n3)c(S(=O)(=O)O)c2)c2c1C(=O)c1ccccc1C2=O [D6, Reactive Blue 2]",19.6 ± 3.4,,
"O=[N+]([O-])c1ccc2c(N=Nc3ccc4ccccc4c3O)c(O)cc(S(=O)(=O)[O-])c2c1.[Na+] [D18, Eriochrome Black T]",14.3 ± 3.3,,
"Nc1ccc(N=Nc2ccc(-c3ccc(N=Nc4c(S(=O)(=O)[O-])cc5cc(S(=O)(=O)[O-])c(N=Nc6ccccc6)c(O)c5c4N)cc3)cc2)c(N)c1.[Na+].[Na+] [D34, Chlorazol Black E]",7.7 ± 1.5,,
"O=S(=O)([O-])c1ccc(N=Nc2ccc(N=Nc3c(O)c(S(=O)(=O)[O-])cc4cc(S(=O)(=O)[O-])ccc34)c(S(=O)(=O)[O-])c2)cc1.[Na+].[Na+].[Na+].[Na+] [D42, Ponceau S]",11.2 ± 2.7,,
"O=C([O-])c1c(Cl)c(Cl)c(Cl)c(Cl)c1-c1c2cc(I)c(=O)c(I)c-2oc2c(I)c([O-])c(I)cc12.[Na+].[Na+] [D43, Rose Bengal]",7.5 ± 1.6,,Kd (peptide P5; with peptide P5): 0.4 ± 0.03 µM; Kd (peptide P5; with unphosphorylated P5 peptide): 0.4 ± 0.03 µM; Kd [1]: 0.21 ± 0.04 µM
"O=C(O)c1nn(-c2ccc(S(=O)(=O)O)cc2)c(O)c1N=Nc1ccc(S(=O)(=O)O)cc1 [D47, Tartrazine]",15 ± 2.1,,
"Cc1cc(-c2ccc(/N=N/c3c(S(=O)(=O)O)cc4cc(S(=O)(=O)O)cc(N)c4c3O)c(C)c2)ccc1/N=N/c1c(S(=O)(=O)O)cc2cc(S(=O)(=O)O)cc(N)c2c1O [D48, Trypan Blue]",11.9 ± 3.6,,
"CC(=O)NCC(=O)N[C@@H](CCCNC(=N)N)C(=O)N[C@H](C(=O)NCC(=O)N[C@@H](CCCNC(=N)N)C(=O)N[C@@H](CCCNC(=N)N)C(=O)N[C@@H](CNC(=O)Cc1ccc2ccc3cccc4ccc1c2c34)C(=O)N[C@@H](CO)C(=O)N[C@@H](Cc1ccc(O)cc1)C(=O)N1CCC[C@H]1C(N)=O)[C@@H](C)O [P2, Ac-GRTGRRDap(Pyr)SYP-amide] (Ac-GRTGRR[Dap](Acetyl(1-pyrenyl))SYP-NH2)",,51,
C[C@@H](O)[C@H](NC(=O)[C@H](CCCNC(=N)N)NC(=O)CNC(=O)CCCCCNC(=O)Cc1ccc2ccc3cccc4ccc1c2c34)C(=O)NCC(=O)N[C@@H](CCCNC(=N)N)C(=O)N[C@@H](CCCNC(=N)N)C(=O)N[C@@H](Cc1ccccc1)C(=O)N[C@@H](CO)C(=O)N[C@@H](Cc1ccc(O)cc1)C(=O)N1CCC[C@H]1C(N)=O [P9],,48,
AcGAla(Pyr)TGRRDap(Carminic acid)SLPA-amide (Ac-G[Ala(Pyr)]TGRR[Dap](Carminic acid)SLPA-NH2; reading uncertain) [P14],,,change in fluorescence upon phosphorylation by PKA (PKA [3]): No significant change in fluorescence
AcGAla(Pyr)TGRRDap(Reactive Blue 2)SLPA-amide [P13],,,change in fluorescence upon phosphorylation by PKA (PKA [3]): No significant change in fluorescence; increase in fluorescence upon phosphorylation by PKA (PKA [3]; in the presence of 14-3-3τ (2.1 μM)): 1.5-2.3 fold
Aniline Blue WS [D27],18.1 ± 2.6,,Kd (peptide P9): 0.6 ± 0.03 µM

# Continued, in another order:
Kd (peptide P2) [µM],% Fluorescence Enhancement (PKA [2]) [%],Compound,also measured
,40,Ac-GRDap(Pyr)GRRFSYP-amide [P4],
,19,Ac-GRTDap(Pyr)RRFSYP-amide [P3],
,0,Ac-GRTGRRFSDap(Pyr)P-amide [P1],
